In ChEMBL document CHEMBL1201862, “PubChem BioAssay data set” (2004):
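Briefly, cells in 96-well plates were exposed to five compound concentrations for 48 h, and endpoints were estimated by linear interpolation. GI50: concentration for 50% inhibition of growth.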 Active and inactive are the calls of the source. Cut-off read from the data, not from the text of the source: active = GI50 up to about 1.1 µM and inactive = higher.

Legend:
Test in all cases: NCI anticancer screen, dose series, 48 h
ACHN = test system: ACHN
A549 = test system: A549
NCI-H522 = test system: NCI-H522
TK-10 = test system: TK-10
Malme-3M = test system: Malme-3M
K562 = test system: K562
HL-60 = test system: HL-60
NCI-H23 = test system: NCI-H23
M14 = test system: M14
NCI/ADR-RES = test system: NCI/ADR-RES
UO-31 = test system: UO-31
UACC-257 = test system: UACC-257
IGROV-1 = test system: IGROV-1
786-0 = test system: 786-0
SN12C = test system: SN12C
UACC-62 = test system: UACC-62
CAKI-1 = test system: CAKI-1
LOX IMVI = test system: LOX IMVI
RPMI-8226 = test system: RPMI-8226
HOP-62 = test system: HOP-62

Measured: GI50

CCOC(=O)c1c(-c2ccccc2)c(-c2ccccc2)cn1C
inactive: ACHN > 10 µM | A549 > 10 µM | NCI-H522 > 10 µM | TK-10 > 10 µM | Malme-3M > 10 µM | K562 > 10 µM | HL-60 > 10 µM | NCI-H23 > 10 µM | M14 > 10 µM | NCI/ADR-RES 5.82 µM | UO-31 > 10 µM | UACC-257 > 10 µM | IGROV-1 > 10 µM | 786-0 > 10 µM | SN12C > 10 µM | UACC-62 > 10 µM

CCOC(=O)NNC(=O)NCCCCNC(=O)NNC(=O)OCC
inactive: ACHN > 100 µM | A549 > 100 µM | NCI-H522 > 100 µM | TK-10 > 100 µM | CAKI-1 > 100 µM | LOX IMVI > 100 µM | K562 > 100 µM | HL-60 > 100 µM | NCI-H23 > 100 µM | M14 > 100 µM | NCI/ADR-RES > 100 µM | RPMI-8226 > 100 µM | UO-31 > 100 µM | UACC-257 > 100 µM | IGROV-1 > 100 µM | 786-0 > 100 µM | HOP-62 > 100 µM | SN12C > 100 µM | UACC-62 > 100 µM

CCC1(O)CC(CCN(Cc2ccccc2)C(=O)OCc2ccccc2)C(OCc2ccccc2)C1O (stereo unspecified)
inactive: ACHN 17 µM | A549 9.93 µM | NCI-H522 10.1 µM | TK-10 16.5 µM | CAKI-1 25.3 µM | LOX IMVI 21.9 µM | K562 4.69 µM | NCI-H23 14 µM | M14 15.5 µM | NCI/ADR-RES 10.8 µM | UO-31 16.2 µM | UACC-257 16.1 µM | IGROV-1 20.4 µM | 786-0 17.2 µM | HOP-62 14.5 µM | SN12C 24.4 µM | UACC-62 12.9 µM

Oc1cccc(-c2ccc3c4c2O[C@H]2c5[nH]c6ccccc6c5C[C@@]5(O)[C@@H](C3)N(CC3CC3)CC[C@]425)c1
inactive: ACHN 2.23 µM | A549 1.78 µM | TK-10 2.24 µM | Malme-3M 1.86 µM | CAKI-1 1.75 µM | LOX IMVI 1.8 µM | HL-60 1.65 µM | NCI-H23 2.3 µM | M14 1.7 µM | NCI/ADR-RES 2.11 µM | UO-31 1.67 µM | IGROV-1 1.74 µM | 786-0 1.62 µM | SN12C 1.67 µM

CC1=C(C(=O)NNC(=O)C(N)=O)CC(C(=O)NNC(=O)C(N)=O)=C(C)N1
inactive: ACHN > 100 µM | A549 > 100 µM | NCI-H522 > 100 µM | TK-10 > 100 µM | CAKI-1 > 100 µM | LOX IMVI > 100 µM | K562 > 100 µM | HL-60 47.4 µM | NCI-H23 > 100 µM | M14 > 100 µM | NCI/ADR-RES > 100 µM | RPMI-8226 > 100 µM | UO-31 > 100 µM | UACC-257 > 100 µM | IGROV-1 > 100 µM | 786-0 > 100 µM | HOP-62 > 100 µM | SN12C > 100 µM | UACC-62 > 100 µM

CN1N=C(c2ccncc2)OC1c1ccc(C(F)(F)F)cc1 (stereo unspecified)
inactive: ACHN > 100 µM | A549 > 100 µM | NCI-H522 > 100 µM | TK-10 > 100 µM | LOX IMVI > 100 µM | K562 > 100 µM | HL-60 > 100 µM | NCI-H23 > 100 µM | M14 > 100 µM | NCI/ADR-RES > 100 µM | RPMI-8226 > 100 µM | UO-31 > 100 µM | UACC-257 > 100 µM | IGROV-1 > 100 µM | 786-0 98.4 µM | HOP-62 82.8 µM | SN12C > 100 µM | UACC-62 > 100 µM

CCN(CC)c1ccc(C2SCC(=O)N2c2ccc(NC(=O)c3ccc(N4C(=O)CSC4c4ccc(N(CC)CC)cc4)cc3)cc2)cc1 (stereo unspecified)
inactive: ACHN > 100 µM | A549 > 100 µM | NCI-H522 > 100 µM | TK-10 > 100 µM | Malme-3M > 100 µM | CAKI-1 > 100 µM | LOX IMVI 67 µM | K562 47.6 µM | NCI-H23 > 100 µM | M14 > 100 µM | NCI/ADR-RES > 100 µM | UO-31 > 100 µM | UACC-257 > 100 µM | IGROV-1 > 100 µM | 786-0 > 100 µM | HOP-62 89.7 µM | SN12C > 100 µM | UACC-62 > 100 µM

Cc1ccc(OCC2OC(C#N)C(Oc3ccc(C)cc3)C2Oc2ccc(C)cc2)cc1 (stereo unspecified)
inactive: A549 > 100 µM | NCI-H522 > 100 µM | CAKI-1 > 100 µM | K562 > 100 µM | HL-60 > 100 µM | NCI-H23 > 100 µM | M14 > 100 µM | NCI/ADR-RES > 100 µM | RPMI-8226 > 100 µM | UO-31 > 100 µM | IGROV-1 > 100 µM | 786-0 > 100 µM | HOP-62 > 100 µM | SN12C > 100 µM | UACC-62 > 100 µM
